Laboratory results taken from patent publication US4593093A, “Acyl derivatives” (priority 1980, dated 1986).
Structures can show the parent of a compound that is named as a salt. Where two headings read alike, the source gives them in different places.

Columns and labels:
Streptococcus viridans = experiment: Activity in vitro: minimum inhibitory concentration; assay type: cell-based
Staphylococcus aureus = experiment: as above; assay type: cell-based
Citrobacter freundii = experiment: as above; assay type: cell-based
Pseudomonas aeruginosa [1] = experiment: as above; assay type: cell-based
Proteus morganii = experiment: as above; assay type: cell-based; details: Morganella morganii
Klebsiella pseumoniae = experiment: as above; assay type: cell-based
Serratia marcescens [2] = experiment: as above; assay type: cell-based
Pseudomonas aeruginosa [3] = experiment: Activity in vivo: survival of intraperitoneally infected mice; details: sc, 96 h; mice infected i.p. with Pseudomonas aeruginosa; s.c. three times, 1 h, 3 h and 5 h after infection; survival on 4th day; read-out: CD50 (dosage at which 50% of the animals survive)
Outline: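 Mice (5/group) infected intraperitoneally, then given compound in physiological saline subcutaneously at 1 and 3 h post-infection (in some cases three times, at 1, 3 and 5 h). Survivors counted on day 4; CD50 (mg/kg), the dose giving 50% survival, interpolated from several dosages.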

Escherichia coli [4] = experiment: Activity in vitro: minimum inhibitory concentration; assay type: cell-based
Escherichia coli [5] = experiment: Activity in vivo: survival of intraperitoneally infected mice; details: sc, 96 h; mice infected i.p. with Escherichia coli; s.c. twice, 1 h and 3 h after infection; survival on 4th day; read-out: CD50 (dosage at which 50% of the animals survive)
Outline: (§1)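 CD50 (mg/kg): interpolated dose protecting half the mice at day 4. Infection route i.p., aqueous suspension; treatment s.c. in physiological NaCl, 1 h + 3 h post-infection; n=5 per dose group.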

Streptococcus pyogenes [6] = experiment: as above; details: sc, 96 h; mice infected i.p. with Streptococcus pyogenes; s.c. twice, 1 h and 3 h after infection; survival on 4th day; read-out: CD50 (dosage at which 50% of the animals survive)
Outline: as §1

Haemophilus influenzae = experiment: as above; details: sc, 96 h; mice infected i.p. with Haemophilus influenzae; s.c. twice, 1 h and 3 h after infection; survival on 4th day; read-out: CD50 (dosage at which 50% of the animals survive)
Outline: (§2)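 First, groups of five mice receive the pathogen suspension intraperitoneally. Next, test substance dissolved in saline is injected subcutaneously at 1 h and again at 3 h. Finally, surviving animals are counted on day 4 and the 50%-survival dose interpolated as CD50 (mg/kg).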

Enterobacter cloacae [7] = experiment: as above; details: sc, 96 h; mice infected i.p. with Enterobacter cloacae; s.c. twice, 1 h and 3 h after infection; survival on 4th day; read-out: CD50 (dosage at which 50% of the animals survive)
Outline: as §2

Serratia marcescens [8] = experiment: as above; details: sc, 96 h, mice infected i.p. with Serratia marcescens strain 1, s.c. twice, 1 h and 3 h after infection, survival on 4th day, read-out: CD50 (dosage at which 50% of the animals survive)
Outline: as §1

Enterobacter aerogenes = experiment: Activity in vitro: minimum inhibitory concentration; assay type: cell-based; details: Klebsiella aerogenes
Proteus inconstans = experiment: as above; assay type: cell-based; details: Providencia alcalifaciens
Staphylococcus epidermis = experiment: as above; assay type: cell-based
Proteus mirabilis = experiment: as above; assay type: cell-based
Toxicity, LD50 = details: in vivo
Streptococcus faecalis = experiment: Activity in vitro: minimum inhibitory concentration; assay type: cell-based; details: Enterococcus faecalis
Enterobacter cloacae [9] = experiment: as above; assay type: cell-based
Proteus vulgaris = experiment: as above; assay type: cell-based
Proteus rettgeri = experiment: as above; assay type: cell-based; details: Providencia rettgeri
Streptococcus pneumoniae = experiment: as above; assay type: cell-based
Streptococcus pyogenes [10] = experiment: as above; assay type: cell-based
Neisseria moningitidis = experiment: Activity in vivo: survival of intraperitoneally infected mice; details: sc, 96 h; mice infected i.p. with Neisseria moningitidis; s.c. twice, 1 h and 4 h after infection; survival on 4th day; read-out: CD50 (dosage at which 50% of the animals survive)
Experimental: Groups of 5 mice are infected intraperitoneally with an aqueous suspension of various pathogens. The test substance in physiological sodium chloride solution is administered subcutaneously twice, i.e. 1 hour and 3 hours after the infection. The number of surviving animals is determined on the 4th day. Various dosages are administered and that dosage at which 50% of the experimental animals survive (CD50, mg/kg) is determined by interpolation.
**Administered subcutaneously twice: 1 hour and 4 hours after the […]

[11] = Pseudomonas aeruginosa strain 1
[12] = Pseudomonas aeruginosa strain 2
[13] = Pseudomonas aeruginosa strain 3
[14] = Enterobacter aerogenes strain 1
[15] = Enterobacter aerogenes strain 2
[16] = Streptococcus faecalis strain 1
[17] = Streptococcus faecalis strain 2
[18] = Streptococcus pyogenes strain 1, read-out: Minimum inhibitory concentration
[19] = Streptococcus pyogenes strain 2, read-out: Minimum inhibitory concentration

`CO/N=C(\C(=O)N[C@@H]1C(=O)N2C(C(=O)O)=C(CSc3nnc(C)s3)CS[C@H]12)c1c[se]c(N)n1` [Product B, (6R, 7R)-7-[2-)2-amino-4-selenazolyl)-2-[(Z)-methoxyimino]-acetamido]-3-[[(5-methyl-1,3,4-thiadiazol-2-yl)thio]methyl]-8-oxo-5-thia-1-azabicyclo[4.2.0]oct-2-ene-2-carboxylic acid sodium salt] gave an MIC (Streptococcus viridans) of 0.8 µg/mL, an MIC (Staphylococcus aureus; Staphylococcus aureus strain 1) of 0.8 µg/mL and an MIC (Staphylococcus aureus; Staphylococcus aureus strain 2) of 1.6 µg/mL. It also gave an MIC (Staphylococcus aureus; Staphylococcus aureus strain 3) of 0.8 µg/mL, an MIC (Staphylococcus aureus; Staphylococcus aureus strain 4) of 1.6 µg/mL and an MIC (Citrobacter freundii; Citrobacter freundii strain 1) of 1.6 µg/mL. For the same compound, the MIC (Citrobacter freundii; Citrobacter freundii strain 2) was 0.2 µg/mL, the MIC (Pseudomonas aeruginosa [1]; [11]) was 50 µg/mL and the MIC (Pseudomonas aeruginosa [1]; [12]) was 25 µg/mL. The MIC (Pseudomonas aeruginosa [1]; [13]) was 6.3 µg/mL, the MIC (Proteus morganii) was 0.05 µg/mL and the MIC (Klebsiella pseumoniae; Klebsiella pseumoniae strain 1) was 0.4 µg/mL. For the same compound, the MIC (Klebsiella pseumoniae; Klebsiella pseumoniae strain 2) was 0.1 µg/mL, the MIC (Klebsiella pseumoniae; Klebsiella pseumoniae strain 3) was 0.2 µg/mL and the MIC (Serratia marcescens [2]; Serratia marcescens strain 1) was 0.8 µg/mL. The MIC (Serratia marcescens [2]; Serratia marcescens strain 2) was 1.6 µg/mL, the MIC (Serratia marcescens [2]; Serratia marcescens strain 3) was 0.2 µg/mL and the ED50 (Pseudomonas aeruginosa [3]) was 134 mg/kg. For the same compound, the MIC (Escherichia coli [4]; Escherichia coli strain 1) was 0.2 µg/mL, the MIC (Escherichia coli [4]; Escherichia coli strain 2) was 0.006 µg/mL and the MIC (Escherichia coli [4]; Escherichia coli strain 3) was 0.8 µg/mL. The MIC (Escherichia coli [4]; Escherichia coli strain 4) was 0.2 µg/mL, the MIC (Escherichia coli [4]; Escherichia coli strain 5) was 0.4 µg/mL and the ED50 (Escherichia coli [5]) was 0.006 mg/kg. For the same compound, the ED50 (Streptococcus pyogenes [6]) was 0.05 mg/kg, the ED50 (Haemophilus influenzae) was 0.27 mg/kg and the ED50 (Enterobacter cloacae [7]) was over 12 mg/kg. The ED50 (Serratia marcescens [8]) was 0.52 mg/kg, the MIC (Enterobacter aerogenes; [14]) was 0.1 µg/mL and the MIC (Enterobacter aerogenes; [15]) was 0.1 µg/mL. The MIC (Proteus inconstans) was 0.025 µg/mL, the MIC (Staphylococcus epidermis) was 0.8 µg/mL and the MIC (Proteus mirabilis; Proteus mirabilis strain 1) was 0.19 µg/mL. It also gave an MIC (Proteus mirabilis; Proteus mirabilis strain 2) of 0.19 µg/mL, an MIC (Proteus mirabilis; Proteus mirabilis strain 3) of 0.2 µg/mL and an MIC (Proteus mirabilis; Proteus mirabilis strain 4) of 0.4 µg/mL. It also gave an MIC (Proteus mirabilis; Proteus mirabilis strain 5) of 0.4 µg/mL, an LD50 (Toxicity, LD50; po) of over 5000 mg/kg and an LD50 (Toxicity, LD50; sc) of over 4000 mg/kg. For the same compound, the MIC (Streptococcus faecalis; [16]) was 100 µg/mL, the MIC (Streptococcus faecalis; [17]) was 100 µg/mL and the MIC (Enterobacter cloacae [9]; Enterobacter cloacae strain 1) was over 100 µg/mL. It also gave an MIC (Enterobacter cloacae [9]; Enterobacter cloacae strain 2) of 1.6 µg/mL, an MIC (Enterobacter cloacae [9]; Enterobacter cloacae strain 3) of 50 µg/mL and an MIC (Proteus vulgaris) of 0.78 µg/mL. For the same compound, the MIC (Proteus rettgeri) was 0.2 µg/mL, the MIC (Streptococcus pneumoniae) was 0.025 µg/mL and the MIC (Streptococcus pyogenes [10]; [18]) was 0.025 µg/mL. It also gave an MIC (Streptococcus pyogenes [10]; [19]) of at most 0.012 µg/mL.

`CO/N=C(\C(=O)N[C@@H]1C(=O)N2C(C(=O)O)=C(CSc3nc(=O)c(O)nn3C)C[S+]([O-])[C@H]12)c1c[se]c(N)n1` (stereo partly drawn) [Product E, (6R, 7R)-7-[2-(2-amino-4-selenazolyl)-2-[(Z)-methoxyimino]-acetamido]-3-[[(2,5-dihydro-6-hydroxy-2-methyl-5-oxo-as-triazin-3-yl)-thio]methyl]-8-oxo-5-thia-1-azabicyclo[4.2.0]oct-2-ene-2-carboxylic acid 5-oxide disodium salt] showed an MIC (Streptococcus viridans) of over 12 µg/mL, an MIC (Staphylococcus aureus; Staphylococcus aureus strain 1) of over 12 µg/mL and an MIC (Staphylococcus aureus; Staphylococcus aureus strain 2) of over 12 µg/mL. For the same compound, the MIC (Staphylococcus aureus; Staphylococcus aureus strain 3) was over 12 µg/mL, the MIC (Staphylococcus aureus; Staphylococcus aureus strain 4) was over 12 µg/mL and the MIC (Citrobacter freundii; Citrobacter freundii strain 1) was 0.1 µg/mL. It also gave an MIC (Citrobacter freundii; Citrobacter freundii strain 2) of 0.1 µg/mL, an MIC (Pseudomonas aeruginosa [1]; [11]) of 100 µg/mL and an MIC (Pseudomonas aeruginosa [1]; [12]) of 100 µg/mL. For the same compound, the MIC (Pseudomonas aeruginosa [1]; [13]) was 50 µg/mL, the MIC (Proteus morganii) was 0.1 µg/mL and the MIC (Klebsiella pseumoniae; Klebsiella pseumoniae strain 1) was 0.1 µg/mL. It also gave an MIC (Klebsiella pseumoniae; Klebsiella pseumoniae strain 2) of 0.05 µg/mL, an MIC (Klebsiella pseumoniae; Klebsiella pseumoniae strain 3) of 0.1 µg/mL and an MIC (Serratia marcescens [2]; Serratia marcescens strain 1) of 0.8 µg/mL. It also gave an MIC (Serratia marcescens [2]; Serratia marcescens strain 2) of 0.8 µg/mL, an MIC (Serratia marcescens [2]; Serratia marcescens strain 3) of 0.2 µg/mL and an ED50 (Pseudomonas aeruginosa [3]) of 75 mg/kg. The MIC (Escherichia coli [4]; Escherichia coli strain 1) was 0.1 µg/mL, the MIC (Escherichia coli [4]; Escherichia coli strain 2) was 0.025 µg/mL and the MIC (Escherichia coli [4]; Escherichia coli strain 3) was 0.8 µg/mL. The MIC (Escherichia coli [4]; Escherichia coli strain 4) was 0.05 µg/mL, the MIC (Escherichia coli [4]; Escherichia coli strain 5) was 0.4 µg/mL and the ED50 (Escherichia coli [5]) was 0.017 mg/kg. For the same compound, the ED50 (Streptococcus pyogenes [6]) was 0.13 mg/kg, the ED50 (Haemophilus influenzae) was 1.8 mg/kg and the ED50 (Enterobacter cloacae [7]) was 0.06 mg/kg. The ED50 (Serratia marcescens [8]) was 0.03 mg/kg, the MIC (Enterobacter aerogenes; [14]) was 0.1 µg/mL and the MIC (Enterobacter aerogenes; [15]) was 0.05 µg/mL. The MIC (Proteus inconstans) was 0.025 µg/mL, the MIC (Staphylococcus epidermis) was over 12 µg/mL and the MIC (Proteus mirabilis; Proteus mirabilis strain 3) was 0.05 µg/mL. The MIC (Proteus mirabilis; Proteus mirabilis strain 4) was 0.4 µg/mL, the MIC (Proteus mirabilis; Proteus mirabilis strain 5) was 0.1 µg/mL and the LD50 (Toxicity, LD50; po) was over 5000 mg/kg. For the same compound, the LD50 (Toxicity, LD50; sc) was over 4000 mg/kg, the MIC (Streptococcus faecalis; [16]) was over 12 µg/mL and the MIC (Streptococcus faecalis; [17]) was over 12 µg/mL. It also gave an MIC (Enterobacter cloacae [9]; Enterobacter cloacae strain 1) of 1.6 µg/mL, an MIC (Enterobacter cloacae [9]; Enterobacter cloacae strain 2) of 0.2 µg/mL and an MIC (Enterobacter cloacae [9]; Enterobacter cloacae strain 3) of 1.6 µg/mL. For the same compound, the MIC (Proteus rettgeri) was 0.05 µg/mL, the MIC (Streptococcus pneumoniae) was 3.1 µg/mL and the ED50 (Neisseria moningitidis) was under 0.1 mg/kg. It also gave an MIC (Streptococcus pyogenes [10]; [18]) of 3.1 µg/mL and an MIC (Streptococcus pyogenes [10]; [19]) of 0.2 µg/mL.
